Assay results taken from patent publication US10640497B2, “Microbiocidal oxadiazole derivatives” (SYNGENTA PARTICIPATIONS AG, priority 2015, dated 2020).

Columns and labels:
[1] = system: Glomerella lagenarium (Colletotrichum lagenarium); assay: Fungicidal activity against Glomerella lagenarium (Colletotrichum lagenarium), liquid culture, cucumber, preventative (anthracnose); type: cell-based; details: Colletotrichum orbiculare, liquid culture (PDB), growth inhibition measured photometrically 3-4 days after application, compared to untreated control
Protocol: Mycelia fragments or conidia suspensions of a fungus, prepared either freshly from liquid cultures of the fungus or from cryogenic storage, are directly mixed into nutrient broth. DMSO solutions of the test compound (max. 10 mg/ml) is diluted with 0.025% Tween20 by a factor of 50 and 10 μl of this solution is pipetted into a microtiter plate (96-well format). The nutrient broth containing the fungal spores/mycelia fragments is then added to give an end concentration of the tested compound. The test plates are incubated in the dark at 24° C. and 96% relative humidity. The inhibition of fungal growth is determined photometrically after 2 to 7 days, depending on the pathosystem, and percent antifungal activity relative to the untreated check is calculated. Conidia of the fungus from cryogenic storage are directly mixed into nutrient broth (PDB potato dextrose broth). After placing a (DMSO) solution of test compound into a microtiter plate (96-well format), the nutrient broth containing the fungal spores is added. The test plates are incubated at 24° C. and the inhibition of growth is measured photometrically 3-4 days after application.

Phakopsora pachyrhizi = assay: Fungicidal activity against Phakopsora pachyrhizi, soybean, leaf disc preventative (Asian soybean rust); type: in vivo; details: foliar, 288 h, 12-14 days after application, compared to untreated control
Protocol: Leaf disks or leaf segments of various plant species are cut from plants grown in a greenhouse. The cut leaf disks or segments are placed in multiwell plates (24-well format) onto water agar. The leaf disks are sprayed with a test solution before (preventative) or after (curative) inoculation. Compounds to be tested are prepared as DMSO solutions (max. 10 mg/ml) which are diluted to the appropriate concentration with 0.025% Tween20 just before spraying. The inoculated leaf disks or segments are incubated under defined conditions (temperature, relative humidity, light, etc.) according to the respective test system. A single evaluation of disease level is carried out 3 to 14 days after inoculation, depending on the pathosystem. Percent disease control relative to the untreated check leaf disks or segments is then calculated. Soybean leaf disks are placed on water agar in multiwell plates (24-well format) and sprayed with the formulated test compound diluted in water. One day after application leaf discs are inoculated by spraying a spore suspension on the lower leaf surface. After an incubation period in a climate cabinet of 24-36 hours in darkness at 20° C. and 75% rh leaf disc are kept at 20° C. with 12 h light/day and 75% rh. The activity of a compound is assessed as percent disease control compared to untreated when an appropriate level of disease damage appears in untreated check leaf disks (12-14 days after application).

[2] = system: Puccinia recondita f. sp. tritici; assay: Fungicidal activity against Puccinia recondita f. sp. tritici, wheat, leaf disc curative (brown rust); type: in vivo; details: foliar, 144 h, wheat leaf segments, curative (applied 1 day after inoculation), 6-8 days after application, compared to untreated control
Protocol: (§1) Leaf disks or leaf segments of various plant species are cut from plants grown in a greenhouse. The cut leaf disks or segments are placed in multiwell plates (24-well format) onto water agar. The leaf disks are sprayed with a test solution before (preventative) or after (curative) inoculation. Compounds to be tested are prepared as DMSO solutions (max. 10 mg/ml) which are diluted to the appropriate concentration with 0.025% Tween20 just before spraying. The inoculated leaf disks or segments are incubated under defined conditions (temperature, relative humidity, light, etc.) according to the respective test system. A single evaluation of disease level is carried out 3 to 14 days after inoculation, depending on the pathosystem. Percent disease control relative to the untreated check leaf disks or segments is then calculated. Wheat leaf segments cv. Kanzler are placed on agar in multiwell plates (24-well format). The leaf segments are inoculated with a spore suspension of the fungus. Plates are stored in darkness at 19° C. and 75% rh. The formulated test compound diluted in water is applied 1 day after inoculation. The leaf segments are incubated at 19° C. and 75% rh under a light regime of 12 h light/12 h darkness in a climate cabinet and the activity of a compound is assessed as percent disease control compared to untreated when an appropriate level of disease damage appears in untreated check leaf segments (6-8 days after application).

[3] = system: Puccinia recondita f. sp. tritici; assay: Fungicidal activity against Puccinia recondita f. sp. tritici, wheat, leaf disc preventative (brown rust); type: in vivo; details: foliar, wheat leaf segments, preventative (inoculated 1 day after application), 7-9 days after application, compared to untreated control
Protocol: as §1, with “plates (24-well format) and sprayed with the formulated test compound diluted in water. The leaf” for “plates (24-well format). The leaf”, “of the fungus 1 day” for “of the fungus. Plates are stored in darkness at 19° C. and 75% rh. The formulated test compound diluted in water is applied 1 day”, “day after application. The inoculated” for “day after inoculation. The leaf”, “application. The inoculated leaf segments” for “inoculation. The leaf segments”, “leaf segments (7-9 days after” for “leaf segments (6-8 days after”

SMILES	inhibition of growth at 20 ppm [1]	pest or weed control at 200 ppm (Phakopsora pachyrhizi)	pest or weed control at 200 ppm [2]	pest or weed control at 200 ppm [3]	melting point
CC(=O)N1CCN(Cc2ccc(-c3noc(C(F)(F)F)n3)cc2)C(=O)C1 [Compound A-35, 4-acetyl-1-[[4-[5-(trifluoromethyl)-1,2,4-oxadiazol-3-yl]phenyl]methyl]piperazin-2-one]	≥ 80%	≥ 80%	≥ 80%	≥ 80%	
O=C1CCCON1Cc1ccc(-c2noc(C(F)(F)F)n2)cc1 [Compound A-37, 2-[[4-[5-(trifluoromethyl)-1,2,4-oxadiazol-3-yl]phenyl]methyl]oxazinan-3-one]	≥ 80%	≥ 80%	≥ 80%	≥ 80%	
CON(C)C(=O)N1CCN(Cc2ccc(-c3noc(C(F)(F)F)n3)cc2)C(=O)C1 [Compound A-39, N-methoxy-N-methyl-3-oxo-4-[[4-[5-(trifluoromethyl)-1,2,4-oxadiazol-3-yl]phenyl]methyl]piperazine-1-carboxamide]	≥ 80%	≥ 80%	≥ 80%	≥ 80%	
O=C1CN(C(=O)C2CC2)CCN1Cc1ccc(-c2noc(C(F)(F)F)n2)cc1 [Compound A-40, 4-(cyclopropane-carbonyl)-1-[[4-[5-(trifluoromethyl)-1,2,4-oxadiazol-3-yl]phenyl]methyl]piperazin-2-one]	≥ 80%	≥ 80%	≥ 80%	≥ 80%	
CN(C)S(=O)(=O)N1CCN(Cc2ccc(-c3noc(C(F)(F)F)n3)cc2)C(=O)C1 [Compound A-42, N,N-dimethyl-3-oxo-4-[[4-[5-(trifluoromethyl)-1,2,4-oxadiazol-3-yl]phenyl]methyl]piperazine-1-sulfonamide]	≥ 80%	≥ 80%	≥ 80%	≥ 80%	
CNS(=O)(=O)N1CCN(Cc2ccc(-c3noc(C(F)(F)F)n3)cc2)C(=O)C1 [Compound A-43, N-methyl-3-oxo-4-[[4-[5-(trifluoromethyl)-1,2,4-oxadiazol-3-yl]phenyl]methyl]piperazine-1-sulfonamide]	≥ 80%	≥ 80%	≥ 80%	≥ 80%	
CN1CCN(Cc2ccc(-c3noc(C(F)(F)F)n3)cc2)C1=O [Compound A-46, 1-methyl-3-[[4-[5-(trifluoromethyl)-1,2,4-oxadiazol-3-yl]phenyl]methyl]imidazolidin-2-one]	≥ 80%	≥ 80%	≥ 80%	≥ 80%	
CN1C(=O)CN(Cc2ccc(-c3noc(C(F)(F)F)n3)cc2)C1=O [Compound A-47, 3-methyl-1-[[4-[5-(trifluoromethyl)-1,2,4-oxadiazol-3-yl]phenyl]methyl]imidazolidine-2,4-dione]	≥ 80%	≥ 80%	≥ 80%	≥ 80%	
CN1CCCN(Cc2ccc(-c3noc(C(F)(F)F)n3)cc2)C1=O [Compound A-48, 1-methyl-3-[[4-[5-(trifluoromethyl)-1,2,4-oxadiazol-3-yl]phenyl]methyl]hexahydro-pyrimidin-2-one]	≥ 80%	≥ 80%	≥ 80%	≥ 80%	
CN1CC(=O)N(Cc2ccc(-c3noc(C(F)(F)F)n3)cc2)C1=O [Compound A-50, 1-methyl-3-[[4-[5-(trifluoromethyl)-1,2,4-oxadiazol-3-yl]phenyl]methyl]imidazolidine-2,4-dione]	≥ 80%	≥ 80%	≥ 80%	≥ 80%	
O=C1CCCCN1Cc1ccc(-c2noc(C(F)(F)F)n2)nc1 [Compound A-53, 1-[[6-[5-(trifluoromethyl)-1,2,4-oxadiazol-3-yl]-3-pyridyl]methyl]piperidin-2-one]			≥ 80%	≥ 80%	80 to 89 °C
CC(C)(C)OC(=O)N1CC(=O)N(Cc2ccc(-c3noc(C(F)(F)F)n3)cc2)C(=O)C1 [Compound A-62, tert-butyl 3,5-dioxo-4-[[4-[5-(trifluoromethyl)-1,2,4-oxadiazol-3-yl]phenyl]methyl]piperazine-1-carboxylate]	≥ 80%			≥ 80%	94 to 102 °C
O=C1CCON1Cc1ccc(-c2noc(C(F)(F)F)n2)c(F)c1F [Compound A-66, 2-[[2,3-difluoro-4-[5-(trifluoromethyl)-1,2,4-oxadiazol-3-yl]phenyl]methyl]isoxazolidin-3-one]	≥ 80%	≥ 80%	≥ 80%	≥ 80%	
O=C1CCCCCN1Cc1ccc(-c2noc(C(F)(F)F)n2)c(F)c1 [Compound A-69, 1-[[3-fluoro-4-[5-(trifluoromethyl)-1,2,4-oxadiazol-3-yl]phenyl]methyl]azepan-2-one]	≥ 80%			≥ 80%	80 to 84 °C
O=C1CCCCCN1Cc1ccc(-c2noc(C(F)(F)F)n2)cc1 [Compound A-70, 1-[[4-[5-(trifluoromethyl)-1,2,4-oxadiazol-3-yl]phenyl]methyl]azepan-2-one]	≥ 80%	≥ 80%	≥ 80%	≥ 80%	
CON1CCN(c2ccc(-c3noc(C(F)(F)F)n3)cc2)C1=O [Compound C-3, 1-methoxy-3-[4-[5-(trifluoromethyl)-1,2,4-oxadiazol-3-yl]phenyl]imidazolidin-2-one]	≥ 80%				185 to 190 °C
O=S1(=O)CCCN1c1ccc(-c2noc(C(F)(F)F)n2)cc1 [Compound D-1, 2-[4-[5-(trifluoromethyl)-1,2,4-oxadiazol-3-yl]phenyl]-1,2-thiazolidine 1,1-dioxide]	≥ 80%	≥ 80%	≥ 80%	≥ 80%	
